Test results: paper PMC10122656, “Siglec-6 mediates the uptake of extracellular vesicles through a noncanonical glycolipid binding pocket” (Nature Communications, 2023)
Several values for one entry are separate records, joined by “and”; a condition that tells them apart may be missing. Identical values can stand only once.

Columns and labels:
[1] = molecular target: T1, CHO cells expressing Siglec-1 (Homo sapiens, UniProt Q9BZZ2); test: Liquid glycan array (LiGA) binding read out by next-generation sequencing; format: cell-based; conditions: for LiGA signal at 0.034: Figure S9, 0.034; for LiGA signal at 0.041: Figure S9, 0.041; for LiGA signal at 0.048: Figure S9, first column 0.048; for LiGA: ganglioside oligosaccharide on phage binding to Siglec-1 CHO cells (Fig. 1e): replicates; for density at which LiGA binding to Siglec-1 CHO cells was maximal: oligosaccharide on phage; for LiGA signal at 0.019: Figure S9, 0.019; for LiGA signal at 0.06: Figure S9, 0.06
T1 construct: expressed in transfected cells
Description: (§1) Solution of five SDB phage clones (10^12−10^13 PFU/mL in PBS) was combined in equal amounts (50 µL) to create a multiplexed silent barcode (MSDB). Twenty-four such MSDB were created and combined DBCO-NHS (50 mM in DMF) to afford a final concentration ranging from 0.25 to 2 mM. The reaction was incubated for 45 min at room temperature. The conjugates were purified by Zeba™ Spin Desalting column (7 kDa MWCO, 0.5 mL, Thermo Fisher) and pVIII modification rate was confirmed by MAL/DI using a previously reported protocol. Typically, 1 mM DBCO-NHS yields 25% of pVIII modification after 45 min incubation. Six MSDB were combined and a solution of azido-glycans (10 mM stock in Nuclease Free H2O) was added to the solution to afford a 2 mM concentration of glycan-azide and the solutions were further incubated overnight at 4 °C. The glycan conjugation was confirmed using MALDI-TOF. The conjugates were purified by Zeba column and supplemented with glycerol and stored as 50% glycerol stock at −20 °C. LiGA mixture was prepared by combining these solutions.
as §1, with “The solution of five” for “Solution of five”, “Fisher) and the pVIII modification” for “Fisher) and pVIII modification”
Confluent CHO cells expressing Siglec-1 or UT CHO cells were detached using PBS plus 5 mM EDTA and washed with PBS (2 × 5 mL). Suspension of at 2 × 10^6 cells in HEPES-1, % BSA (20 mM HEPES, 150 mM NaCl, 2 mM CaCl2, pH 7.4, 1% BSA) in a round bottom 3 mL tube (Corning, #352054) was combined with LiGA (10^8 PFU) and incubated for 1 h at 4 °C. The cells were then washed with HEPES-0.1% BSA in (2 × 3 mL) and HEPES buffer (1 × 1 mL). The washed cell pellet was resuspended in 30 µL nuclease-free H2O. The solution was incubated at 90 °C for 15 min, centrifuged at 21,000 × g for 10 min, and 25 µL of the supernatant was used for PCR and sequencing.

[2] = molecular target: T2, Siglec-7-Fc R124A (Homo sapiens, UniProt Q9Y286, R124A); test: Liposome over lectin assay (LOLA); format: binding; conditions: Siglec-7 R (arginine mutant); replicates
T2 construct: the Siglecs as Fc chimeras; made in house; host or cells: WT CHO cells
Description: (§2) Siglec-Fc constructs designed by Rodrigues et al.[30] were used in this work. Siglec-Fc constructs were expressed using WT CHO cells in cell culture media as described above with 1% HEPES. Cells incubated as described above for one-week post confluency. The supernatant was harvested and stored at 4 °C.
(§3) The purification was heavily inspired by Rodrigues et al.[30]. The purification of the Siglec-Fcs from supernatant began with Ni^2+ affinity chromatography using an AKTA FPLC equipped with a HisTrap Excel column (GE). The column was equilibrated with fifteen column volumes (CVs) of equilibrium buffer (500 mM NaCl, 20 mM NaPO4H2, pH 7.4). The Siglec-Fc containing supernatant was then loaded in its entirety onto the column. The column was then washed with fifteen CVs of wash buffer (500 mM NaCl, 30 mM imidazole, 20 mM NaPO4H2, pH 7.4). The Siglec-Fc was then eluted in 20 in 1 mL fractions with twenty CVs of elution buffer (500 mM NaCl, 500 mM imidazole, 20 mM NaPO4H2, pH 7.4). Fractions containing Siglec-Fc were compiled and then prepared for the next stage of purification by diluting the fractions 1:4 with buffer W (100 mM Tris–HCl, 150 mM NaCl, 1 mM EDTA, pH 8.0). A Strep-Tactin column (IBA life sciences) was washed with fifteen CVs of buffer W. The Siglec-Fc-buffer W solution was then loaded in its entirety onto the column. The bound Siglec-Fc was then washed with fifteen CVs of buffer W. Siglec-Fc was eluted from the column with 15 column volumes of buffer E (100 mM Tris–HCl, 150 mM NaCl, 1 mM EDTA, 10 mM d-Desthiobiotin, pH 8.0). Fractions containing Siglec-Fc were pooled and dialyzed against PBS to remove any d-Desthiobiotin. After dialysis, Siglec-Fcs were concentrated using an ultra-centrifugal device (30 kDa MWCO) and aliquoted into 5 µg aliquots, and frozen. The Siglec-Fcs were then lyophilized overnight, and the lyophilized Siglec-Fcs were stored at −20 °C.
(§4) Siglec-Fc in PBS was adsorbed to a 96-well flat-bottom fluorescent microplate by adding 1 µg/well and incubating the plate at 4 °C overnight. The plate was then washed with PBS followed by blocking with 5% (m/V) BSA in PBS for 1 h at room temperature. The plate was again washed with PBS and 100 µM liposome in PBS was added to each well. The plate was then incubated at 37 °C for 30 min followed by washing with PBS. PBS was then added to the plate and the fluorescence intensity (λex 640 nm, λem 680 nm) of each well was measured using a Molecular Devices SpectraMAX ® iD5.

[3] = molecular target: T3, Siglec-7-Fc WT (Homo sapiens, UniProt Q9Y286); test: Liposome over lectin assay (LOLA); format: binding; conditions: Siglec-7 WT; replicates
T3 construct: the Siglecs as Fc chimeras; made in house; host or cells: WT CHO cells
Description: as §2, §3, §4

[4] = molecular target: T4, Siglec-6-Fc WT (Homo sapiens, UniProt O43699); test: Liposome over lectin assay (LOLA); format: binding; conditions: Siglec-6 WT; replicates
T4 construct: the Siglecs as Fc chimeras; made in house; host or cells: WT CHO cells
Description: as §2, §3, §4

[5] = molecular target: Siglec-1-Fc WT (Homo sapiens, UniProt Q9BZZ2); test: Liposome over lectin assay (LOLA); format: binding; conditions: Siglec-1 WT; replicates
Description: as §2, §3, §4

[6] = molecular target: T5, R122A Siglec-6-Fc (Homo sapiens, UniProt O43699, R122A); test: Liposome over lectin assay (LOLA); format: binding; conditions: Siglec-6 R (arginine mutant); replicates
T5 construct: the Siglecs as Fc chimeras; made in house; host or cells: WT CHO cells
Description: as §2, §3, §4

[7] = oligosaccharide density 0.008 Ligand/nm2
[8] = oligosaccharide density 0.019 Ligand/nm2
[9] = oligosaccharide density 0.034 Ligand/nm2
[10] = oligosaccharide density 0.041 Ligand/nm2
[11] = oligosaccharide density 0.048 Ligand/nm2
[12] = oligosaccharide density 0.06 Ligand/nm2

T5 sequence (O43699 27-347 R122A limits assumed): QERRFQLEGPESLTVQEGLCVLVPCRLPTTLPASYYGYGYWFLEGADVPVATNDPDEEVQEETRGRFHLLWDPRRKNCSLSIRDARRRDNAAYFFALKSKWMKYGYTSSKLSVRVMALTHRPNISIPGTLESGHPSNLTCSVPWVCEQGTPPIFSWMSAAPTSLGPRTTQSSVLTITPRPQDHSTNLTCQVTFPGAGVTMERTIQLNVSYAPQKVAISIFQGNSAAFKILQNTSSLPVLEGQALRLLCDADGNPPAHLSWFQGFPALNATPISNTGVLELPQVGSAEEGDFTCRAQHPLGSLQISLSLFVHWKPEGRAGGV
T1 sequence (Q9BZZ2 20-1709): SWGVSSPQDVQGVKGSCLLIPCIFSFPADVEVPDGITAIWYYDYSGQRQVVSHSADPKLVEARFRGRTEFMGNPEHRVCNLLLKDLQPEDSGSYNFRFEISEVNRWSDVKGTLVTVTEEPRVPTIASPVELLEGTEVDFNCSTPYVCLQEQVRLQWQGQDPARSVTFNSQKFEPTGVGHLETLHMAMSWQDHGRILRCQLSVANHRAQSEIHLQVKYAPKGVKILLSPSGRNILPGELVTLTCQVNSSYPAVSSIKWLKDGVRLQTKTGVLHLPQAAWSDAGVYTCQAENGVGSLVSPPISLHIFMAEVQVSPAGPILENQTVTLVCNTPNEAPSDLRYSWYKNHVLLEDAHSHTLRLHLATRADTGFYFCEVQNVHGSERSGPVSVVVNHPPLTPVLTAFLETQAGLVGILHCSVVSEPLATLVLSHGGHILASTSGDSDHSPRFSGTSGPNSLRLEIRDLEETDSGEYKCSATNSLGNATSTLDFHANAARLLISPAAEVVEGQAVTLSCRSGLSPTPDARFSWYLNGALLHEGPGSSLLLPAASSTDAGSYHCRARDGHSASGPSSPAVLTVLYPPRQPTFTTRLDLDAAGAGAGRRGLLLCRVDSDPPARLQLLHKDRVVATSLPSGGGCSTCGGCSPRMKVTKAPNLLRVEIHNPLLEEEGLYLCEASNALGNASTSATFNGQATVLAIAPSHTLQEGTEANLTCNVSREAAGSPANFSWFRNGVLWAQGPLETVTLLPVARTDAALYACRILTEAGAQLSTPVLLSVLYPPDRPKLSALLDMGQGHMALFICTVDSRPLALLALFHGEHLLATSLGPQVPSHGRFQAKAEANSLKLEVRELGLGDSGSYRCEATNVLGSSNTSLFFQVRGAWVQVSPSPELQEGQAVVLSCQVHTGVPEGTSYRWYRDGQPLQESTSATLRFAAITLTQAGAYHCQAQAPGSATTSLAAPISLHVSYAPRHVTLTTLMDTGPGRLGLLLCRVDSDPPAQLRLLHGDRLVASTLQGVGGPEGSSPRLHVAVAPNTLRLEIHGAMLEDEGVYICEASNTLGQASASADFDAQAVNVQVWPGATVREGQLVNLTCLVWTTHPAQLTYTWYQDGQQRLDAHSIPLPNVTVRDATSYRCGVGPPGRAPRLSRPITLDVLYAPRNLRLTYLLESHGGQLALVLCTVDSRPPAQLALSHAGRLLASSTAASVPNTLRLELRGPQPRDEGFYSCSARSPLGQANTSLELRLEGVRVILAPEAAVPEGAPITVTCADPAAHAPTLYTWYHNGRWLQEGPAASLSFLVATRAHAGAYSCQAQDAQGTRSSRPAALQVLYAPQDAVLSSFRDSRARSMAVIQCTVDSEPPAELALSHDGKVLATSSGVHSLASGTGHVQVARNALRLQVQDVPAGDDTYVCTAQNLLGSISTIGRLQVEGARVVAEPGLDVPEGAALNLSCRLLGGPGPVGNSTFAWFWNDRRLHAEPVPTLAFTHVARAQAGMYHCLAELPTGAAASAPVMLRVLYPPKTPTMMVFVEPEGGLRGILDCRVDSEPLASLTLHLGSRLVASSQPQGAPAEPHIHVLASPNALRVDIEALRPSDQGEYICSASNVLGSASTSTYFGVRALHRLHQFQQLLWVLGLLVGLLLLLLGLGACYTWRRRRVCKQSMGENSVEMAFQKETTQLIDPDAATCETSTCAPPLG
T3 sequence (Q9Y286 19-353 limits assumed): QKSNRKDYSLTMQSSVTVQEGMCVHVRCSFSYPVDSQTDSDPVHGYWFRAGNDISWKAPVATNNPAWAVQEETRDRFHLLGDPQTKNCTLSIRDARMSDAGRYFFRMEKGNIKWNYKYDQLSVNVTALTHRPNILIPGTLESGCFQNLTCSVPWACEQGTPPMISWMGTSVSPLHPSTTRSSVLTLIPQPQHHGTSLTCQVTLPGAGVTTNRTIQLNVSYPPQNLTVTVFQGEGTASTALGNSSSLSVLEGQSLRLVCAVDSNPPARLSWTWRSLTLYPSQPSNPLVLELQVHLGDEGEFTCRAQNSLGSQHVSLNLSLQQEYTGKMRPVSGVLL
T2 sequence (Q9Y286 19-353 R124A limits assumed): as the sequence (Q9Y286 19-353 limits assumed) above, with R106A counted along it
Siglec-1-Fc WT, sequence (Q9BZZ2 20-136 limits assumed): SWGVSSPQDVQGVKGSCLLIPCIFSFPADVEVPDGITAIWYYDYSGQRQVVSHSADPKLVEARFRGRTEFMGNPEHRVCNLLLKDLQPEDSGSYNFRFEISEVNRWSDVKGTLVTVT
T4 sequence (O43699 27-347 limits assumed): as the sequence (O43699 27-347 R122A limits assumed) above, with A96R counted along it

Substance | LiGA signal at 0.034 [1] | LiGA signal at 0.041 [1] | LiGA signal at 0.048 [1] | LiGA signal at 0.066 ([1]; Figure S9, first column 0.066) | LiGA: ganglioside oligosaccharide on phage binding to Siglec-1 CHO cells (Fig. 1e) [1, 7] | LiGA: ganglioside oligosaccharide on phage binding to Siglec-1 CHO cells (Fig. 1e) [1, 8] | LiGA: ganglioside oligosaccharide on phage binding to Siglec-1 CHO cells (Fig. 1e) [1, 9] | LiGA: ganglioside oligosaccharide on phage binding to Siglec-1 CHO cells (Fig. 1e) [1, 10] | LiGA: ganglioside oligosaccharide on phage binding to Siglec-1 CHO cells (Fig. 1e) [1, 11] | LiGA: ganglioside oligosaccharide on phage binding to Siglec-1 CHO cells (Fig. 1e) ([1]; oligosaccharide density 0.066 Ligand/nm2) | density at which LiGA binding to Siglec-1 CHO cells was maximal [1] | LOLA: GLL binding, fluorescence plate reader (Fig. 2e) [2] | LOLA: GLL binding, fluorescence plate reader (Fig. 2e) [3] | LOLA: GLL binding, fluorescence plate reader (Fig. 2e) [4] | LOLA: GLL binding, fluorescence plate reader (Fig. 2e) [5] | LOLA: GLL binding, fluorescence plate reader (Fig. 2e) [6] | LiGA signal at 0.019 [1] | LiGA signal at 0.06 [1] | LiGA: ganglioside oligosaccharide on phage binding to Siglec-1 CHO cells (Fig. 1e) [1, 12]
GD1a | 3.442 and 2.502 and 3.222 and 3.062 and 2.777 | 1.814 and 2.04 and 1.9 and 2.274 and 1.639 | 1.684 and 1.501 and 1.621 and 1.606 | 2.309 and 1.395 and 2.352 and 2.266 | 0.05 (4×) and 0.04 | 0.2 and 0.13 and 0.03 and 0.15 | 0.41 and 0.39 and 0.36 and 0.44 and 0.32 | 0.24 and 0.29 and 0.21 and 0.23 and 0.26 | 0.19 and 0.21 (2×) and 0.22 and 0 | 0.18 and 0.3 (2×) and 0.29 | ~ 26 nm^2/ligand | 6.47 and 10.42 and 11.8 and 5.25 and 10.13 | 7.1 and 6.68 and 9.94 and 10.73 and 13.26 | 28.61 and 32.95 and 30.67 and 25.13 and 23.55 | 13.17 and 9.49 and 10.37 and 14.33 and 18.05 | 37.34 and 37.32 and 38.57 and 41.15 and 44.1 | – | – | –
GD3 | – | – | – | – | – | – | – | – | – | – | – | -0.64 and 18.58 and 8.22 and 12.6 and 8.15 | 10.57 and 10.04 and 18 and 18.66 and 20.44 | 33.08 and 30.39 and 25.39 and 23.72 and 21.46 | 9.49 and 6.85 and 10.11 and 9.9 and 7.11 | 36.87 and 29.95 and 29.9 and 34.98 and 32.24 | – | – | –
GM1 | 0.857 and 0.909 and 0.746 and 0.756 and 0.912 | – | 0.51 and 0.478 and 0.553 and 0.673 | – | 0.12 and 0.09 (2×) and 0.04 | 0.08 (2×) and 0.1 (2×) | 0.11 and 0.12 (2×) and 0.1 (2×) | 0.07 (3×) and 0.08 | 0.07 (2×) and 0.06 and 0.09 | – | – | 2.83 and 4.02 and 10.31 and 3.55 and 12.57 | 6.49 and 5.21 and 2.94 and 8.58 and 5.66 | 18.34 and 20.42 and 17.75 and 12.02 and 17.78 | 5.66 and 12.97 and 11.61 and 4.8 and 8.91 | 17.43 and 40.61 and 36.66 and 31.85 and 32.16 | 0.643 and 0.783 and 0.76 and 0.6 | 1.503 and 0.848 and 1.103 and 0.902 and 1.094 | 0.19 and 0.11 and 0.14 (2×) and 0.12
GM2 | – | – | 6.111 and 6.403 and 6.572 and 7.724 and 12.213 | – | 0.1 (2×) and 0.05 and 0.07 | 0.12 (3×) and 0.13 and 0.23 | 0.71 and 1.24 and 1.08 and 1.35 and 0.62 | – | 0.82 and 0.84 and 0.99 and 0.78 | – | ~ 26 nm^2/ligand | – | – | – | – | – | 0.917 and 0.919 and 0.922 and 1.035 and 1.785 | 5.095 and 7.961 and 4.56 and 5.475 | 1.02 and 0.58 and 0.7 and 0.65
GM3 | 0.358 and 0.619 and 0.601 and 0.534 | 0.827 and 1.082 and 1.01 and 1.1 and 0.616 | 0.881 and 0.783 and 0.773 and 1.152 | – | 0.19 and 0.09 and 0.07 and 0.1 and 0.08 | 0.12 and 0.11 and 0.1 and 0.19 and 0.05 | 0.05 and 0.08 (2×) and 0.07 | 0.11 and 0.14 (2×) and 0.13 and 0.08 | 0.11 and 0.1 (2×) and 0.15 | – | – | – | – | – | – | – | – | – | 0.13 and 0.15 and 0.07 and 0.06
GQ1b | – | – | – | – | – | – | – | – | – | – | – | 6.14 and 4.56 and 5.96 and 16.03 and 20.32 | 15.3 and 24.18 and 22.56 and 26.04 and 30.34 | 19.03 and 15.89 and 21.18 and 22.9 and 35.39 | 10.86 and 11.87 and 9.36 and 23.13 and 11.98 | 25.13 and 35.2 and 35.69 and 28.06 and 30.69 | – | – | –
